Laboratory results: patent publication US20150306081A1, “Chemotherapy for Drug-Resistant Cancer Cells” (THE UNIVERSITY OF SYDNEY, priority 2012, published 2015)

Columns and labels:
[1] = system: non-Pgp expressing 2008 cells; test: MTT proliferation assay, 2008 cells; format: cell-based; settings: 2008 cells, Val 1 μM, Ela 0.1 μM
Method: The 2008 ovarian carcinoma cell line and the PAC-resistant 2008/P200A cell line (grown in 200 ng/mL of PAC) were kindly provided by Dr. John Allen (Centenary Institute, Sydney, Australia). Cells were grown in Dulbecco's modified Eagle's medium (DMEM; Life Technologies) with 10% (v/v) fetal calf serum (Sigma-Aldrich, St. Louis, Mo.) and supplemented with the following additions from Life Technologies: 1% (v/v) sodium pyruvate, 1% (v/v) non-essential amino acids, 100 U/mL penicillin, 100 μg/mL streptomycin, 2 mM L-glutamine and 0.28 μg/mL fungizone. The cells were then incubated at 37° C. in a humidified atmosphere of 5% CO2 and 95% air.
(§1) The effect of anti-cancer agents on cellular proliferation was examined using the MTT [3-(4,5-dimethylthiazol-2-yl)-2,5-diphenyl tetrazolium] method. In this assay, 3×10^3 cells/well were seeded in 96-well plates in 100 μL of media. The next day, serially diluted drugs of interest were added. […] The cells were incubated at 37° C. in a humidified atmosphere containing 5% CO2 and 95% air for 72 h. After this incubation, 10 μL of MIT (5 mg/mL) was added to each well and the incubation continued at 37° C. for 2 h. After solubilization of the cells with 100 μL of 10% SDS-50% isobutanol in 10 mM HCl, the plates were read at 570 nm using a scanning multi-well spectrophotometer (Victor™ Multilabel Counter plate reader; Perkin Elmer, Australia). Results were analyzed to calculate the concentration of chelator or complex necessary to reduce the absorbance to 50% (IC50) of the control.

[2] = system: Pgp over-expressing KBV1 cells; test: Efflux of 14C-Dp44mT, KBV1 cells; format: cell-based, Human
Method: (§2) For the uptake assay, each 35 mm culture dish containing 5×10^5 cells was incubated with ^14C-doxorubicin, ^3H-vinblastine or ^14C-Dp44mT (all at 1 μCi) for 30 min/37° C. Cells were then washed on ice three times with ice-cold PBS and collected for analysis. Drug uptake was calculated as the number of drug molecules/cell. […] For studies using lysosomotropic agents, cells were pre-incubated with NH4Cl (5 mM), CLQ (100 μM) or MA (100 μM) for 30 min/37° C. prior to ^14C-Dp44mT uptake. […] For efflux assays, the same labeling procedure was conducted as in the uptake assay. […] After this procedure, the overlying media was removed using a Pasteur pipette and then placed in a counting vial. The cells were removed from the plate in 1 mL of PBS and then dispensed into a separate counting vial. The radiolabeled-drug efflux was calculated as a percentage of the total drug uptake by the cells found at zero time.

[3] = Redox studies: oxidation of H2DCF, cell-free; settings: acetate buffer pH 5, cysteine, H2O2, over 12 min
Method: These studies were conducted in an acetate buffer (150 mM; pH 5) containing cysteine (100 μM) to mimic lysosomal conditions. In these experiments, hydrogen peroxide (100 μM) was added to initiate ROS generation.

KBV1 cells = test: MTT cytotoxicity after transient knockdown of Pgp (MDR1 siRNA) in KBV1 cells; format: cell-based, Human; settings: Pgp siRNA vs. Scr siRNA, 72 h
Method: as §1
For all siRNA treatments against MDR1 (MDR1-siRNA; Cat #: 4123, Life Technologies), a siRNAlipofectamine mixture (50 nM MDR1 siRNA and 1/400 lipofectamine 2000) was added to the cells (at 30% confluency) and incubated for 72 h/37° C. prior to further experimentation. The effectiveness of Pgp knockdown was confirmed using western blot and also assessing DOX cytotoxicity via the MTT assay. As a control, scrambled siRNA (Scr siRNA; Life Technologies) was used at the same concentration as MDR1 siRNA.

[4] = system: non-Pgp expressing KB31 cells; test: Rhodamine 123 accumulation assay, KB31 cells; format: cell-based, Human; settings: increased concentrations
Method: Cells were then harvested and resuspended in ice-cold PBS and kept on ice until flow cytometric analysis (see below).
The dyes, Rh123 and acridine orange were detected with the FACS Canto flow cytometer (BD Biosciences) and 10,000 events were acquired for every sample. Data analysis was performed using FlowJo software, version 7.5.5 (Tree Star Inc., Ashland, OR).

2008 cells = test: Uptake of 14C-Dp44mT, 2008 cells; format: cell-based; settings: NH4Cl, MA or CLQ pre-incubation
Method: as §2

Pgp = Pgp (Homo sapiens, UniProt P08183); test: Pgp-ATPase activity assay (Pgp-Glo); settings: 40 min
Method: The ATPase activities of Pgp were determined using Pgp-enriched membranes and a luminescent ATP detection kit (Pgp-Glo Assay Kit, Promega, USA) according to the manufacturer's instructions. Briefly, Pgp membranes (0.5 mg/mL) and Mg(II)-ATP (5 mM) were incubated in the absence or presence of sodium orthovanadate (100 μM) for 40 min/37° C. and ATP detected as a luciferase-generated luminescent signal. Basal Pgp-ATPase activities were determined as the difference between the ATP hydrolysis in the presence or absence of sodium orthovanadate. Verapamil-stimulated Pgp-ATPase activity was measured in the presence of the Pgp control substrate, verapamil (200 μM).
Test substrates (Dp44mT and Bp4eT) of interest were dissolved in dimethyl sulfoxide. The final concentration of DMSO in the assay medium was less than 1%.
The Pgp Glo™ ATPase assay (Promega, Madison, Wis.) was used to assess if Dp44mT and Bp4eT are substrates of Pgp. The ATPase assay measures the Pgp-mediated ATPase activity of Pgp by quantitating ATP consumption in the presence of the compounds of interest after incubation with purified membrane proteins containing high levels of Pgp. […] The basal ATPase activity of Pgp is compared to the ATPase activity stimulated or inhibited by the compounds of interest.

[5] = system: non-Pgp expressing KB31 cells; test: MTT proliferation assay, KB31 cells; format: cell-based, Human; settings: Val 1 μM, Ela 0.1 μM, 72 h
[6] = system: Pgp-expressing KBV1 cells; test: Uptake of radio-labeled drug, KBV1 cells; format: cell-based, Human
Method: as §2, with “Cells” for “For the uptake assay, each 35 mm culture dish containing 5×10^5 cells was incubated with ^14C-doxorubicin, ^3H-vinblastine or ^14C-Dp44mT (all at 1 μCi) for 30 min/37° C. Cells”, “vial.” for “vial. The radiolabeled-drug efflux was calculated as a percentage of the total drug uptake by the cells found at zero time.”

Chain of Pgp (P08183 whole entry): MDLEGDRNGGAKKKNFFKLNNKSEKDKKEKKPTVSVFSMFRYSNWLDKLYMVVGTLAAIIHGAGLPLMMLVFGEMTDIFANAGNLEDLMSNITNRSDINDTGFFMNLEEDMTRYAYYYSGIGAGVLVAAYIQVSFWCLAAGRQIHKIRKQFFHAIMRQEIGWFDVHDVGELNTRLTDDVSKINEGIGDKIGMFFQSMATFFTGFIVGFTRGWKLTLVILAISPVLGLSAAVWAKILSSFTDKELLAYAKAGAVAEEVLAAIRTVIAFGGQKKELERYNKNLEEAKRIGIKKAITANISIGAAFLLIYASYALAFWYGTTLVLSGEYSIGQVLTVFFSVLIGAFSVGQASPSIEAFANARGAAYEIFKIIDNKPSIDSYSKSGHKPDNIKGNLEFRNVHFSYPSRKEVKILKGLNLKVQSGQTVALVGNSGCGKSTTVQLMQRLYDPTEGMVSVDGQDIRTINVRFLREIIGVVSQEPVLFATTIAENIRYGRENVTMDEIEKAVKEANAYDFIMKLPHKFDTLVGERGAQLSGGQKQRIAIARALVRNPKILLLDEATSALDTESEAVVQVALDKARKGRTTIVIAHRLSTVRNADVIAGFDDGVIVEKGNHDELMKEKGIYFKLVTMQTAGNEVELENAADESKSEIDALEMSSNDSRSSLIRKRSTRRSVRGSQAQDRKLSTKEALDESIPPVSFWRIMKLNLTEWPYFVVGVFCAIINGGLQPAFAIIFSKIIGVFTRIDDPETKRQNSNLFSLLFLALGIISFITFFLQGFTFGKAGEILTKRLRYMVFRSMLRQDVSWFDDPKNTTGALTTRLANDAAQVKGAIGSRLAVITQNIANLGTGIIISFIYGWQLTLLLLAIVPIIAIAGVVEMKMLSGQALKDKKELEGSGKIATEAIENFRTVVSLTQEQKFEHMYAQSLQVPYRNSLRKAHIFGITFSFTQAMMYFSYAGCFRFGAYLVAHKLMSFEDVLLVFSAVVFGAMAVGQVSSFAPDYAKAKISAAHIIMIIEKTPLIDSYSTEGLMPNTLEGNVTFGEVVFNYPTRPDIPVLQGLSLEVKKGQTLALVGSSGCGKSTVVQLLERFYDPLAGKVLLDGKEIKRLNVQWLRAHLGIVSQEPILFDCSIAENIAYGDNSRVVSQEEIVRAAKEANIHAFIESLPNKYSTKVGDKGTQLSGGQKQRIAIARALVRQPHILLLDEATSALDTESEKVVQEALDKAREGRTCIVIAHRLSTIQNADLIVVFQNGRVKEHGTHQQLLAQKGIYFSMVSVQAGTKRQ

For CN(C)C(=S)NN=C(c1ccccn1)c1ccccn1 [Dp44mT, di-2-pyridylketone 4,4-dimethyl-3-thiosemicarbazone], the “change of cytotoxicity in presence of Pgp inhibitors Val or Ela” value [1] was “no significant (p>0.05) change”, the “efflux in KBV1 cells in comparison to KB31 cells” value ([2]; 1-10 min incubation) was “significantly (p<0.001) higher efflux” and the “effect of Val and Ela on efflux” value ([2]; KBV1 cells, Val 1 μM or Ela 0.1 μM) was “significantly (p<0.01-0.001) suppressed efflux”. The “redox activity (H2DCF oxidation)” value [3] was “no activity”, the “increase of IC50 by knockdown of Pgp” value (KBV1 cells) was 10 fold and the “effect on Rh123 accumulation” value [4] was “did not significantly affect Rh123 accumulation”. For the same compound, the “accumulation after pre-treatment with lysosomotropic agents” value (2008 cells) was “did not significantly affect”, the “stimulation of basal catalytic (ATPase) activity of Pgp” value (Pgp) was 3- to 8 fold and the “change of cytotoxicity in presence of Pgp inhibitors Val or Ela” value [5] was “did not significantly alter their cytotoxicity”. The “accumulation after pre-treatment with lysosomotropic agents” value ([6]; KBV1 cells, NH4Cl, MA or CLQ pre-incubation 30 min/37° C.) was “significantly (p<0.001) decreased”, the “effect of Pgp inhibitors Val and Ela on uptake” value ([6]; KBV1 cells, Val 1 μM or Ela 0.1 μM pre-incubation, versus control) was “significantly (p<0.001) increased the uptake” and the “cellular accumulation in KBV1 cells relative to KB31 cells” value ([6]; control groups, 1 μCi) was “significantly (p<0.001) less”.
